Where no end group is shown, it is not given here.
Tests used:
C. albicans (ATCC 44858) = assay: Vaginal infection rodent model of vulvovaginal candidiasis, fungal counts (FIG. 8); type: in vivo; conditions: rats, 20 mg/mL IVG at 0.1 mL/rat twice daily for 3 days from 48 hr after infection, CFUs on Day 5 (p < 0.0001)
Experimental: FIG. 8A to 8B. RP557 topical treatment reduces rodent vaginal candidiasis. Effects of RP557, miconazole and oral fluconazole in the C. albicans (ATCC 44858) vaginal infection rodent model. On Day 0, rats were inoculated intravaginally (IVG) with C. albicans at 1.46 x 10^7 CFU/rat. RP557 and miconazole at 20 mg/mL were administered IVG at 0.1 mL/rat twice daily at 8 hr intervals starting from 48 hr after infection for 3 days. CFUs were evaluated on Day 5 with limit of detection (LOD) 0.7 CFU/rat. Significant difference, compared to vehicle, determined by one-way ANOVA followed by Dunnett's test (*p < 0.05, ****p < 0.0001). A separate group receiving oral fluconazole; *p < 0.05 versus 0.1 and 10 mg/kg fluconazole.

[1] = Physiochemical properties of RP557 (hydrophilicity, solubility, pH stability); type: physicochemical; conditions: extremes of pH (<4)
Experimental: (§1) Exemplary AMP RP557 was prepared in one gram lots at 98% purity or better. […] Furthermore, advances in solid and solution phase peptide chemistry has enabled Good Manufacturing Practice (GMP) material to be produced rapidly, economically in high yield and purity.

S. aureus ATCC 6538 = assay: Polymicrobial infected full-thickness thermal porcine burn model, bacterial counts (FIG. 6B); type: in vivo; conditions: pig, single topical application, sampled after 24 hours
Experimental: (§2) From the in vitro screening assays three AMPs were selected for further evaluation in a qualified porcine burn wound model infected with P. aeruginosa and S. aureus. Full thickness wounds were created with heated brass rod and 2cm trephine: approximately 10 minutes after homeostasis, wounds were infected with a 2:2:1 mixture of S. aureus, P. aeruginosa and Fuscobacterium ssp. Treatment of infected wounds began 24 hours post infection to allow for biofilm formation.
(§3) Full thickness wounds were created with a heated brass rod and a trephine on the back of anesthetized pigs followed by infection with 2:2:1 mixture of S. aureus ATCC 6538 (FIG. 6B) and P. aeruginosa (porcine isolate) (FIG. 6A) and fusobacterium ssp. After 3 hours, 0, 0.1, 0.2, 1 or 2% RP557 were applied. After 24 hours, wounds were sampled by punch biopsy and bacterial counts, expressed as log (Colony Forming Units, CFUs/g) evaluated. Data is expressed as mean±SE of 8 replicates. Statistical significance, compared to vehicle, determined by one-way ANOVA followed by Dunnett's test (**p < 0.01, ****p < 0.0001).

[2] = system: gram-negative bacteria; A. baumannii and P. aeruginosa; gram-positive bacteria, S. aureus and MRSA and fungal strains; C. albicans, C. parapsilosis, C. krusei …; assay: Antimicrobial activity against multiple clinical isolates of bacteria and fungal strains; type: cell-based
Experimental: Thirty-four AMPs were synthesized and evaluated in three iterative rounds. Each AMP was evaluated for antimicrobial potency against 11 strains of bacteria, 7 strains of fungi and their cytotoxicity determined using L929 fibroblasts and human keratinocytes. The AMPs were evaluated for biofilm eradication and ability to induce antimicrobial resistance.

P. aeruginosa 27853 = assay: Resistance development by serial passage at sub-inhibitory concentrations, 30 passages (FIG. 4); type: cell-based
Experimental: (§4) FIG. 4A to 4B. […] Sub-inhibitory concentrations of RP557, gentamicin and clindamycin were incubated with P. aeruginosa 27853 and S. aureus 29213 for 24 hours. Bacteria showing growth in the highest concentration were re-passaged in fresh dilutions containing sub-minimum inhibitory concentration (MIC) levels of each component for 30 consecutive passages; means are shown.

S. aureus 29213 = assay: as above; type: cell-based
Experimental: as §4

[3] = system: P. aeruginosa (porcine isolate); assay: Polymicrobial infected full-thickness thermal porcine burn model, bacterial counts (FIG. 6A); type: in vivo; conditions: pig, single dose, 2% RP557 (p<0.0001), sampled after 24 hours
Experimental: as §2, §3

Candida 17-88 biofilm = assay: Inhibition of preformed biofilm, metabolic evaluation using XTT (FIG. 5); type: cell-based, Candida albicans; conditions: added to preformed Candida 17-88 biofilm for 24 hours
Experimental: Fluconazole or RP557 were added to preformed Candida 17-88 biofilm for 24 hours and biofilm inhibition evaluated via metabolic evaluation using XTT, 2,3-bis (2-methoxy-4-nitro-5-sulfophenyl) [phenyl-amino)carbonyl]-2H. Data represent the mean±SD of triplicate measurements and statistical significance, compared to vehicle control, determined by one-way ANOVA followed by Dunnett's test (*p < 0.05, **p < 0.01, and ***p < 0.001).

L929 fibroblast cells = assay: Cytotoxicity to mammalian cells, cell viability (FIG. 3C); type: cell-based
Experimental: The rapid destruction of pathogenic cells by potent broad-spectrum topical anti-infectives infer a theoretical reduced likelihood of developing bacterial resistance. […] Cell viability was performed using bioluminescent strains of P. aeruginosa 19660 (FIG. 3A), S. aureus 49525 (FIG. 3B) & L929 fibroblast cells (FIG. 3C) and imaged with the IVIS Lumina system. Data represents the mean of 3 measurements.

[4] = Stability in serum, monitored via LC-MS/MS; type: in vitro ADME; conditions: human serum for 72 hrs at 37°C monitored via LC-MS/MS
Experimental: as §1

[5] = system: S. aureus, P. aeruginosa and Fuscobacterium ssp.; assay: Pharmacodynamic response in biofilm associated wounds, CFU counts of punch biopsies (FIG. 7); type: in vivo; conditions: 2% RP557 applied 24 hours post inoculation; biopsies at 30 min, 180 min and 24 hours post treatment
Experimental: as §2
FIG. 7A-7B Pharmacodynamic Response to RP557. Twenty four hours post bacterial inoculation biofilm associated wounds were treated with 2% RP557. Punch biopsies were taken at 30 min, 180 min and 24 hours post treatment, homogenized, plated and CFUs counted. Statistical significance was calculated using the Holm-Sidak method. *p<0.05, ***p<0.001, ****p<0.0001, dAMP vs Control.

Sequence: RFCWKVCYKGICFKKCK (disulfide (positions not given here)) [RP557, 17 amino acids, hairpin structure formed by two disulfide bonds]
- fungal counts relative to the vehicle control group (C. albicans (ATCC 44858)): significant reductions
- stability at extremes of pH [1]: stable
- S. aureus CFU counts (S. aureus ATCC 6538; 0.2% RP557 (p < 0.01)): 2.11±1.75 log CFU/g tissue
- S. aureus CFU counts (S. aureus ATCC 6538; 1% RP557 (p < 0.0001)): 1.46±2.05 log CFU/g tissue
- antimicrobial activity [2]: broad-spectrum antimicrobial activity
- susceptibility of the resistant strain at the end of 30 serial passages (cross resistance) (P. aeruginosa 27853; gentamicin-resistant P. aeruginosa): readily susceptible
- development of resistance (P. aeruginosa 27853; sub-inhibitory concentrations, 30 consecutive passages, P. aeruginosa 27853): did not develop resistance
- susceptibility of the resistant strain at the end of 30 serial passages (cross resistance) (S. aureus 29213; clindamycin-resistant S. aureus): readily susceptible
- development of resistance (S. aureus 29213; sub-inhibitory concentrations, 30 consecutive passages, S. aureus 29213): did not develop resistance
- number of viable P. aeruginosa bacteria [3]: 1.96±1.64 log CFU/g tissue
- biofilm inhibition (Candida 17-88 biofilm): potent inhibitor
- cytotoxicity to mammalian cells (L929 fibroblast cells): not cytotoxic
- stability in serum [4]: stable in serum
- pharmacodynamic response, CFUs in wounds [5]: Kills Infection Throughout a 24 Hour Period

— patent EP3866826B1, “ANTIMICROBIAL PEPTIDES AND METHODS OF USING THE SAME” (priority 2018, dated 2020)
